pIC50: −log10 of the molar value.
Biological target: human recombinant LSD1 protein (Homo sapiens (Human), UniProt O60341)
Assay: In vitro enzyme inhibition activity assay - LSD1 (Lance Ultra TR-FRET)
Format: biochemical
Settings: all compounds tested in the form of hydrochloride
Protocol: The purpose of this experiment was to test the in vitro inhibitory activity of the compounds against LSD1. The human recombinant LSD1 protein used in the experiment was purchased from Active Motif, and the enzyme level activity testing assay of LSD1 was performed using the Lance Ultra LSD1 Histone H3 Lysine 4 Demethylase Assay Kit (PerkinElmer). Tris-buffer (50 mMTris-HCl, 50 mMNaCl, 0.01% Tween-20, 1 mM DTT, 10 μM FAD, 10% glycerol, pH 9.0) was first prepared, and after preparation, the LSD1 fractions required for test were placed in this buffer and incubated for one hour at room temperature; the fractions included 4 μL of substrate solution ([…] Bio-H3K4me2, 1-24aa), 4 μL of enzyme solution (4 nM LSD1), and 2 μL of inhibitor in a 384-well microplate. After these operations, another 5 μL of assay mixture containing Eu-labeled H3K4me0 antibody and ULight-Streptavidin anti-biotin protein was added to the system, after which the fluorescence intensity of the components to be tested was detected by using Envision (PerkinElmer) in TR-FRET mode (excitation wavelength of 320 nm, emission wavelength of 620 nm). The test was repeated a total of three times to minimize errors. The final IC50 data were calculated by the software GraphPad Prism 5, and finally the sigmoidal dose-response (variable slope) method was used to obtain the fitted curve.
The LSD1 inhibitory activities of representative compounds of the present application as well as the positive control compound CC90011 were provided in Table 2. All compounds were tested in the form of hydrochloride.

Row | Compound | pIC50
1 | N#Cc1ccc(-c2nc(NC[C@H]3CCNC3)nc3ccc(-c4ccccc4F)cc23)cc1F [Compound 41, (S)-2-fluoro-4-(2-((pyrrolidin-3-ylmethyl)amino)-6-(2-fluorophenyl)quinazolin-4-yl)-2-fluorobenzonitrile] | 6.52 to 7.52
2 | Cn1ncc2cc(-c3ccc4nc(N5CCC(N)CC5)nc(-c5ccc(C#N)c(F)c5)c4c3)ccc21 [Compound 9, 4-(2-(4-aminopiperidin-1-yl)-6-(1-methyl-1H-indazol-5-yl)quinazolin-4-yl)-2-fluorobenzonitrile] | 6.52 to 7.52
3 | N#Cc1ccc(-c2nc(N3CCC(N)CC3)nc3c2CN(c2c(F)cccc2C(F)(F)F)CC3)cc1F [Compound 93, 4-(2-(4-aminopiperidin-1-yl)-6-(2-fluoro-6-(trifluoromethyl)phenyl)-5,6,7,8-tetrahydropyrido[4,3-d]pyrimidin-4-yl)-2-fluorobenzonitrile] | 6.52 to 7.52
4 | N#Cc1ccc(-c2nc(N3CCC[C@H](N)C3)nc3ccc(-c4c(F)cccc4C(F)(F)F)cc23)cc1F [Compound 75, (S)-4-(2-(3-aminopiperidin-1-yl)-6-(2-fluoro-6-(trifluoromethyl)phenyl)quinazolin-4-yl)-2-fluorobenzonitrile] | 6.52 to 7.52
5 | N#Cc1ccc(-c2nc(N3CCCC[C@H](N)C3)nc3ccc(-c4c(F)cccc4C(F)(F)F)cc23)cc1F [Compound 86, (S)-4-(2-(3-aminoazepan-1-yl)-6-(2-fluoro-6-(trifluoromethyl)phenyl)quinazolin-4-yl)-2-fluorobenzonitrile] | ≥ 7.52
6 | N#Cc1ccc(-c2nc(NC[C@H]3CCNC3)nc3ccc(-c4ccccc4OC(F)(F)F)cc23)cc1F [Compound 39, (S)-2-fluoro-4-(2-((pyrrolidin-3-ylmethyl)amino)-6-(2-(trifluoromethoxy)phenyl)quinazolin-4-yl)benzonitrile] | 6.52 to 7.52
7 | Cn1ncc2c(-c3ccc4nc(N5CCC(N)CC5)nc(-c5ccc(C#N)c(F)c5)c4c3)cccc21 [Compound 10, 4-(2-(4-aminopiperidin-1-yl)-6-(1-methyl-1H-indazol-4-yl)quinazolin-4-yl)-2-fluorobenzonitrile] | 6.52 to 7.52
8 | Cc1c(F)cccc1-c1ccc2nc(NC[C@H]3CCNC3)nc(-c3ccc(C#N)c(F)c3)c2c1 [Compound 47, (S)-2-fluoro-4-(6-(3-fluoro-2-methylphenyl)-2-((pyrrolidin-3-ylmethyl)amino)quinazolin-4-yl)benzonitrile] | 6.52 to 7.52
9 | N#Cc1ccc(-c2nc(N3CC[C@@H](N)C3)nc3ccc(-c4c(F)cccc4C(F)(F)F)cc23)cc1F [Compound 91, (R)-4-(2-(3-aminopyrrolidin-1-yl)-6-(2-fluoro-6-(trifluoromethyl)phenyl)quinazolin-4-yl)-2-fluorobenzonitrile] | ≥ 7.52
10 | CC1(N)CCN(c2nc(-c3ccc(C#N)c(F)c3)c3cc(-c4c(F)cccc4C(F)(F)F)ccc3n2)CC1 [Compound 63, 4-(2-(4-Amino-4-methylpiperidin-1-yl)-6-(2-fluoro-6-(trifluoromethyl)phenyl)quinazolin-4-yl)-2-fluorobenzonitrile] | ≥ 7.52
11 | N#Cc1ccc(-c2nc(N3CCC(N)CC3)nc3cc(F)c(-c4ccccc4C(F)(F)F)cc23)cc1F [Compound 79, 4-(2-(4-Aminopiperidin-1-yl)-7-fluoro-6-(2-(trifluoromethyl)phenyl)quinazolin-4-yl)-2-fluorobenzonitrile] | 6.52 to 7.52
12 | Cc1ccccc1-c1ccc2nc(NC[C@@H]3CCNC3)nc(-c3ccc(C#N)c(F)c3)c2c1 [Compound 38, (R)-2-fluoro-4-(2-((pyrrolidin-3-ylmethyl)amino)-6-(o-methylphenyl)quinazolin-4-yl)benzonitrile] | 6.52 to 7.52
13 | N#Cc1ccc(-c2nc(NC[C@H]3CCNC3)nc3ccc(-c4c(F)cccc4Cl)cc23)cc1F [Compound 55] | ≥ 7.52
14 | N#Cc1ccc(-c2nc(N3CCC4(CCCN4)CC3)nc3ccc(-c4c(F)cccc4C(F)(F)F)cc23)cc1F [Compound 77, 2-Fluoro-4-(6-(2-fluoro-6-(trifluoromethyl)phenyl)-2-(1,8-diazaspiro[4.5]dec-8-yl)quinazolin-4-yl)benzonitrile] | ≥ 7.52
15 | N#Cc1ccc(-c2nc(N3CCC(N)CC3)nc3ccc(-c4cccc(F)c4F)cc23)cc1F [Compound 17, 4-(2-(4-aminopiperidin-1-yl)-6-(2,3-difluorophenyl)quinazolin-4-yl)-2-fluorobenzonitrile] | 6.52 to 7.52
16 | N#Cc1ccc(-c2nc(N3CC[C@H](N)C3)nc3ccc(-c4c(F)cccc4C(F)(F)F)cc23)cc1F [Compound 90, (S)-4-(2-(3-aminopyrrolidin-1-yl)-6-(2-fluoro-6-(trifluoromethyl)phenyl)quinazolin-4-yl)-2-fluorobenzonitrile] | ≥ 7.52
17 | N#Cc1ccc(-c2nc(N3CC[C@@H](N)[C@@H](F)C3)nc3ccc(-c4c(F)cccc4C(F)(F)F)cc23)cc1F [Compound 83, 4-(2-((3S,4R)-4-amino-3-fluoropiperidin-1-yl)-6-(2-fluoro-6-(trifluoromethyl)phenyl)quinazolin-4-yl)-2-fluorobenzonitrile] | 6.52 to 7.52
18 | N#Cc1ccc(-c2nc(N3CC[C@H](N)[C@@H](F)C3)nc3ccc(-c4c(F)cccc4C(F)(F)F)cc23)cc1F [Compound 85, 4-(2-((3S,4S)-4-amino-3-fluoropiperidin-1-yl)-6-(2-fluoro-6-(trifluoromethyl)phenyl)quinazolin-4-yl)-2-fluorobenzonitrile] | 6.52 to 7.52

The next lines start with the values.

Row | pIC50 | Compound
19 | ≥ 7.52 | Cc1cccc(C)c1-c1ccc2nc(N3CCC(N)CC3)nc(-c3ccc(C#N)c(F)c3)c2c1 [Compound 12, 4-(2-(4-Aminopiperidin-1-yl)-6-(2,6-dimethylphenyl)quinazolin-4-yl)-2-fluorobenzonitrile]
20 | ≥ 7.52 | N#Cc1ccc(-c2nc(N3CCCC(N)CC3)nc3ccc(-c4c(F)cccc4C(F)(F)F)cc23)cc1F (stereo not shown) [Compound 72, 4-(2-(4-aminoazepan-1-yl)-6-(2-fluoro-6-(trifluoromethyl)phenyl)quinazolin-4-yl)-2-fluorobenzonitrile]
21 | 6.52 to 7.52 | Cc1ccccc1-c1ccc2nc(NC[C@H]3CCNC3)nc(-c3ccc(C#N)c(F)c3)c2c1 [Compound 37, (S)-2-fluoro-4-(2-((pyrrolidin-3-ylmethyl)amino)-6-(o-methylphenyl)quinazolin-4-yl)benzonitrile]
22 | 6.52 to 7.52 | N#Cc1ccc(-c2nc(NC[C@H]3CCNC3)nc3ccc(-c4cc(F)ccc4C(F)(F)F)cc23)cc1F [Compound 56, (S)-4-(6-(5-fluoro-2-(trifluoromethyl)-2-(pyrrolidin-3-ylmethyl)amino)quinazolin-4-yl)-2-fluorobenzonitrile]
23 | 6.52 to 7.52 | N#Cc1ccc(-c2nc(N3CCC(N)CC3)nc3c(F)cc(-c4ccccc4F)cc23)cc1F [Compound 81]
24 | 6.52 to 7.52 | N#Cc1ccc(-c2nc(NC[C@H]3CCNC3)nc3ccc(-c4cccc(O)c4F)cc23)cc1F [Compound 61, (S)-2-fluoro-4-(6-(2-fluoro-3-hydroxyphenyl)-2-((pyrrolidin-3-ylmethyl)amino)quinazolin-4-yl)benzonitrile]
25 | 6.52 to 7.52 | N#Cc1ccc(-c2nc(N3CC4C(N)C4C3)nc3ccc(-c4c(F)cccc4C(F)(F)F)cc23)cc1F (stereo not shown) [Compound 65, 4-(2-(6-Amino-3-azabicyclo[3.1.0]hexan-3-yl)-6-(2-fluoro-6-(trifluoromethyl)phenyl)quinazolin-4-yl)-2-fluorobenzonitrile]
26 | ≥ 7.52 | N#Cc1ccc(-c2nc(N3CCC[C@H](N)CC3)nc3ccc(-c4c(F)cccc4C(F)(F)F)cc23)cc1F [Compound 88, (S)-4-(2-(4-aminoazepan-1-yl)-6-(2-fluoro-6-(trifluoromethyl)phenyl)quinazolin-4-yl)-2-fluorobenzonitrile]
27 | ≥ 7.52 | N#Cc1ccc(-c2nc(N3CCCC(N)C3)nc3ccc(-c4c(F)cccc4C(F)(F)F)cc23)cc1F (stereo not shown) [Compound 70, 4-(2-(3-aminopiperidin-1-yl)-6-(2-fluoro-6-(trifluoromethyl)phenyl)quinazolin-4-yl)-2-fluorobenzonitrile]
28 | ≥ 7.52 | Cn1c(=O)c(-c2ccccc2C(F)(F)F)cc2c(-c3ccc(C#N)c(F)c3)nc(N3CCC(N)CC3)nc21 [Compound 99, 4-(2-(4-aminopiperidin-1-yl)-8-methyl-7-oxo-6-(2-trifluoromethylphenyl)-7,8-dihydropyrido[2,3-d]pyrimidin-4-yl)-2-fluorobenzonitrile]
29 | ≥ 7.52 | N#Cc1ccc(-c2nc(N3CCC(N)CC3)nc3c(F)cc(-c4ccccc4C(F)(F)F)cc23)cc1F [Compound 80, 4-(2-(4-aminopiperidin-1-yl)-8-fluoro-6-(2-trifluoromethylphenyl)quinazolin-4-yl)-2-fluorobenzonitrile]
30 | 6.52 to 7.52 | Cc1cccc(-c2ccc3nc(NC[C@H]4CCNC4)nc(-c4ccc(C#N)c(F)c4)c3c2)c1C(F)(F)F [Compound 59, (S)-2-fluoro-4-(6-(3-methyl-2-(trifluoromethyl)phenyl)-2-((pyrrolidin-3-ylmethyl)amino)quinazolin-4-yl)benzonitrile]
31 | 6.52 to 7.52 | N#Cc1ccc(-c2nc(NC[C@H]3CCNC3)nc3ccc(-c4cccc(F)c4F)cc23)cc1F [Compound 43, (S)-2-fluoro-4-(2-((pyrrolidin-3-ylmethyl)amino)-6-(2,3-difluorophenyl)quinazolin-4-yl)-2-fluorobenzonitrile]
